Source: patent US8901317B2, “Tryptamine derivatives, their preparation and their use in gastropathy” (Council of Scientific & Industrial Research, priority 2010, dated 2014)

Key:
[1] = DPPH free radical scavenging assay; settings: compounds 100 μM; 517 nm (Table 2)
Method: The antioxidant property of different tryptamine derivatives were assessed and compared with the known antioxidants for potency. A range of different synthesized compounds and known anti oxidants, quercetin, ascorbic acid and gallic acid were analyzed by the FRAP assay. The FRAP assay is based on the measurement of the ability of the substance to reduce Fe^3+ to Fe^2+, greater the reducing ability greater the anti oxidant property. Antioxidants reduce Fe^3+-TPTZ in to blue colored Fe^2+-TPTZ complex, which results in an increase in the absorbance at 595 nm giving a FRAP value. […] Absorbance changes at different time intervals (FIG. 6) as well as at different concentrations (FIG. 7) at time 6 min in the presence of different compounds at 595 nm were measured. FRAP values at 6 min and 65 min were calculated from different tryptamine derivatives and some known antioxidant (Table 1). […] DPPH assay based on the DPPH free radicals scavenging power of the antioxidant molecules. Higher the scavenging power higher will be the antioxidant property. […] This assay was performed in presence of some known antioxidants such as ascorbic acid, quercetin and gallic acid.
2,2-Diphenyl-1-Picrylhydrazyl (DPPH) is a stable free radical that can accept hydrogen radical or an electron and become a stable diamagnetic molecule. The antioxidants can scavenge the DPPH by donating hydrogen as visualized by discoloration of the DPPH radical from purple to yellow (Pal, C; et al. Free Radic Biol Med, 49(2), 258-267; 2010, Ben Farhat, M.; et al. J. Agric. Food Chem. 57:10349-10356; 2009, Han, J; et al. Wei Sheng Yan Jiu 38:596-598; 2009). The assay system contained 1 mL of compounds under investigation dissolved (in methanol, some compound dissolved in water) at different concentrations in the range 10-100 μM solution and 4 ml of DPPH (0.15 mM) in methanol (80% in water v/v) and mixed well. It was allowed to stand for 30 min at 27° C. away from light. Ascorbic acid at the same concentration was taken as positive control. The absorbance of the solution was measured spectrophotometrically at 517 nm and from the decrease of absorption; the antioxidant activity of different tryptamine derivatives were determined.

[2] = Ferric reducing antioxidant power (FRAP) assay; settings: compound at 10 μM relative to ferrous sulfate; for FRAP Value6 min (μM) M ± SD: 6 min; for FRAP Value65 min (μM) M ± SD: 65 min
Method: The antioxidant property of different tryptamine derivatives were assessed and compared with the known antioxidants for potency. […] The FRAP assay is based on the measurement of the ability of the substance to reduce Fe^3+ to Fe^2+, greater the reducing ability greater the anti oxidant property. Antioxidants reduce Fe^3+-TPTZ in to blue colored Fe^2+-TPTZ complex, which results in an increase in the absorbance at 595 nm giving a FRAP value. […] Absorbance changes at different time intervals (FIG. 6) as well as at different concentrations (FIG. 7) at time 6 min in the presence of different compounds at 595 nm were measured. FRAP values at 6 min and 65 min were calculated from different tryptamine derivatives and some known antioxidant (Table 1). […] DPPH assay based on the DPPH free radicals scavenging power of the antioxidant molecules. Higher the scavenging power higher will be the antioxidant property.
The assay was performed in a 96-well microplate. FRAP reagent was prepared by mixing of 10 ml acetate buffer (200 mM, pH-3.6), 1 ml of 2,4,6-tris(2-pyridyl)-s-triazine (TPTZ) solution (10 mM in 40 mM HCl) and 1 ml of ferric chloride solution (20 mM) in distilled water. For 1 h the mixture was kept in a water bath at 37° C. In 96-well microplates, 25 μL of the compounds under investigation dissolved (in methanol, some compound dissolved in water) at different concentrations in the range 1-25 μM was placed in triplicate and freshly prepared FRAP solution (175 μL) was added to this sample. A micro plate reader monitored the absorbance at 595 nm at different time intervals for up to 150 min. The absorbance of a mixture 175 μL TRAP sol and 25 μL methanol or water was taken which was subtracted from the absorbance of the samples at each time interval to calculate the absorbance change (ΔA). The FRAP value at time interval t (FRAP valuet) was calculated according to the formula: FRAP valuet(M)=(ΔatFl/ΔatFe^2+)×10^−5 Where ΔatFl is the absorbance change after the time interval t (6 and 65 min) relative to the tested flavonoid at the concentration of 10 μM and ΔatFe^2+ is the absorbance change at the same time interval relative to ferrous sulfate at the same concentration (Pal, C; et al. Free Radic Biol Med, 49(2), 258-267, 2010, Firuzi, O; et al. Biochim. Biophys. Acta 1721:174-184; 2005).

CaCo2 colon cancer cells = settings: literature (Shoeb et al. 2006); cited from earlier work
rats = assay: Toxicity (death) after injection in rats; assay type: in vivo; settings: injected; dose not given
[3] = literature (Shahrzad et al. 2001); cited from earlier work

Row | Compound | Absorbance change (ΔA) at 30 min [1] | FRAP Value6 min (μM) M ± SD [2] [µM] | FRAP Value65 min (μM) M ± SD [2] [µM] | in vitro cytotoxic activity (CaCo2 colon cancer cells) | death of rats after injection (rats) | bioavailability in plasma [3]
1 | O=C(/C=C/c1ccc(O)cc1)NCCc1c[nH]c2ccc(O)cc12 [Compound 2b, (E)-N-(2-(5-hydroxy-1H-indol-3-yl)ethyl)-3-(4-hydroxyphenyl)acrylamide] | 0.12 ± 0.01 | 3.09 ± 0.13 | 7.44 ± 1.47 | shows in vitro cytotoxic activity |  | 
2 | NCCc1c[nH]c2ccc(OC(=O)CCCC(=O)NCCc3c[nH]c4ccc(O)cc34)cc12 [Compound 6c, 3-(2-aminoethyl)-1H-indol-5-yl 5-(2-(5-hydroxy-1H-indol-3-yl)ethylamino)-5-oxopentanoate] | 0.19 ± 0.03 | 17.51 ± 0.38 | 29.78 ± 3.87 |  | all the rats were found dead within 20 mins | 
3 | O=C(O)c1cc(O)c(O)c(O)c1 [Gallic acid, reference compound] |  | 33.90 ± 4.92 | 46.59 ± 8.41 |  |  | low
